Measured values from patent US20140179798A1, “N1,N4-BIS(BUTA-1,3-DIENYL)BUTANE-1,4-DIAMINE PHARMACEUTICAL COMPOSITIONS AND METHODS THEREOF” (Wisconsin Alumni Research Foundation, priority 2006, published 2014).
Entries after “also recorded” stand apart in the source; their conditions may differ.

Columns and labels:
[1] = test system: LNCaP human prostate cancer cells; assay: DCFH (DCF) oxidation assay of ROS, DCF/DNA fluorescence; format: cell-based; conditions: for DCF/DNA Fluor, units: DMEM + (F1/C4)
Method: It is well-accepted in the art that androgen, at physiological concentrations, induces ROS production in androgen dependent prostate cancer cells. A 2′,7′-dichlorodihydrofluorescein diacetate (DCF) oxidation assay was used to measure the ratio of oxidized DCF:DNA fluorescence which is an accepted measure of ROS levels in prostate cell lines. […]
Results were determined using DCF oxidation assay methods. Each data point is an average of readings from qty. 6 wells repeated twice in triplicates.
(§1) DCFH oxidation assay. The 96-well cultures or freshly re-sected animal or human tissues were assayed for estimation of ROS levels in intact cells using the dye 2′,7′ -dichlorofluorescein diacetate (DCF) (Molecular Probes, Inc., Eugene, Oreg.). Re-sected tissues or cell cultures were washed with 200 μL Kreb's Ringer buffer (116 mM NaCl, 4.2 mM KCl, 2.5 mM CaCl2, 1.6 mM NaH2PO4, 1.2 mM MgSO4, 22 mM NaHCO3, and 11 mM D-glucose), pre-warmed to 37° C., incubated at 37° C. in 100 μL Kreb's Ringer buffer containing 10 μg/mL (final concentration) DCF dye for 45 minutes. Each 96-well culture plate was scanned on a CytoFluor 2350™ plate scanner (Applied Biosystems, Foster City, Calif.) using the 485 excitation/530 emission frequencies. Each tissue sample was scanned.
DNA Assay. Fifty μL of Kreb's Ringer Buffer (40 ug/mL) containing Hoechst 33342 dye, which contains
(§2) was added to each well 45 minutes and to all tissues 60 minutes before fluorescence measurements. The DNA fluorescence was determined 360 nm excitation/460 nm emission. All DCF or Hydroethidine fluorescence were normalized to DNA fluorescence for proper quantitation of oxidative stress.

[2] = test system: prostate tissue in TRAMPxFVB animals; assay: Hydroethidine (HEt) dye oxidation in prostate sections in vivo; set-up: species or system mouse; conditions: 20-week-old TRAMPxFVB, 6 administrations of 25 mg/kgBW, sacrificed 2 weeks after treatment, HEt 8 mg/kgBW i.v.
Method: A method using hydroethidine (HEt) dye oxidation was standardized to observe oxidative stress in prostate tumors in vivo. HEt oxidizes to 2-hydroxy ethidium specifically by a ROS(41). The 2-hydroxy ethidium fluoresces at 488 nm excitation and 595 nm emission frequencies. The HEt dye may be safely injected into animals at least 1 hour before sacrifice. Twenty-week old TRAMPxFVB animals were injected with HEt (8 mg/kgBW) 1 hour before sacrifice. After sacrifice, prostate glands were collected, formalin-fixed and paraffin-embedded. Paraffin blocks were microtome-sectioned, and the tissues were deparaffinized, observed using fluorescence microscopy, and analyzed using digital image analysis.
The picture shown in FIGS. 7A-7D were taken at 20× magnification using an Olympus BH-2 fluorescence microscope using 480 nm excitation/600 nm emission filters coupled with a Sony DSC-V3 digital camera set at F2.8 and 30 sec. exposure.
Hydroethidine Assay. Hydroethidine dye was dissolved in DMSO (100 mg/ml) and diluted in isotonic saline to 1 mg/ml before injection. […] Microtome sections of the blocks were mounted on slides and were quantitated for fluorescence at 488 nm excitation/595 nm emission frequencies.

[3] = Tolerability and body weight in TRAMPxFVB mice; conditions: 25 mg/kgBW
[4] = test system: DU-145 human prostate cancer cells; assay: DCFH (DCF) oxidation assay of ROS, DCF/DNA fluorescence; format: cell-based; conditions: for DCF/DNA Fluor, units: DU-145, DMEM + F(5)
Method: It is well-accepted in the art that androgen, at physiological concentrations, induces ROS production in androgen dependent prostate cancer cells. A 2′,7′-dichlorodihydrofluorescein diacetate (DCF) oxidation assay was used to measure the ratio of oxidized DCF:DNA fluorescence which is an accepted measure of ROS levels in prostate cell lines.
The LNCaP human prostate cancer cells were grown in an androgen-depleted medium of 1% FBS and 4% charcoal stripped FBS, (F1/C4) and in the presence or absence of 1 nM synthetic androgen analog R1881 with or without 15 μM antioxidant α-tocopherol (vitamin E) pretreatment.
BE-3-3-3 is known to induce SSAT enzyme activity in various cell lines including androgen-dependent LNCaP and androgen-independent DU-145 prostate cancel cells. DU-145 cells were treated with increasing concentrations of BE-3-3-3 for 72 hours. Oxidative stress was measured using 96-well plate based 2′7′-dichlorfluorescein diacetate dye (“DCF”) oxidation assay. Each data point is an average of qty. 6 identically-treated wells repeated twice in triplicates.
as §1, with “Each tissue sample was scanned.” left out
as §2

[5] = test system: TRAMPxFVB mice (palpable prostate tumor); assay: Time to palpable tumor development in TRAMPxFVB mice; format: in vivo, mouse
Source text: Signs of palpable prostate tumor development were monitored twice every week.

[6] = test system: polyamine and acetyl polyamine levels in LNCaP human prostate cells; assay: HPLC quantitation of polyamine and acetyl polyamine levels; format: cell-based
Source text: Each data point is an average of 2 determinations of cell pellets collected from qty. 3 independent experiments.
It can be stated that FIGS. 5A-5E support the conclusion that R1881 treatment increases SSAT mRNA levels while enhancing SSAT enzyme activity.

[7] = test system: TRAMP male mice (spontaneous prostate tumors); assay: Overall survival of TRAMP mice; format: in vivo, mouse
[8] = test system: TRAMPxFVB male mice (spontaneous prostate tumors); assay: Overall survival of TRAMPxFVB mice; format: in vivo, mouse
Source text: In the study using the TRAMPxFVB mice, qty. 8 animal were in the MDL 72,527-treated group, and qty. 8 mice were in the vehicle-treated group. Since these animals start prostate tumor development at an earlier age than do the TRAMP animals, treatment began at 8 weeks of age. Treatment included qty. […] Over 60% of the MDL 72,527-treated TRAMPxFVB mice survived at least 8 weeks after the end of the therapy, and at least 6 weeks after the death of the entire group of control vehicle-treated animals.

[9] = test system: Androgen Receptor; assay: Western blot analysis of Androgen Receptor; format: in vivo, mouse; conditions: TRAMPxFVB mice
[10] = test system: SSAT gene expression in LNCaP cells; assay: DNA microarray analysis of gene expression (Affymetrix Genechip Arrays); format: cell-based, human; conditions: 1 nM R1881, 96 hours
Method: As shown schematically in FIG. 1, unusually high polyamine levels in prostate cells and high induction of SSAT may induce large increases in ROS levels. A DNA microarray analysis of gene expression in control untreated LNCaP cells and cells treated with 1 nM androgen analog R1881 for 96 hours was performed twice using Affymetrix Genechip Arrays. In both experiments, SSAT was clearly identified as being highly over-expressed in R1881 treated with LNCaP cells as compared to untreated control cells. Among the list of genes that are over-expressed (more than 10-fold over the control), SSAT was the only enzyme connected to the ROS-generating pathway.

[11] = test system: SSAT mRNA in LNCaP human prostate cancer cells; assay: qRT-PCR quantitation of SSAT mRNA normalized to GAPDH mRNA; format: cell-based; conditions: 1 nM R1881, 96 hours
Source text: Each data point is an average of readings from qty. six identically-treated wells repeated twice in triplicates. […] It can be thus postulated that androgen-induced SSAT gene expression is a significant contributor to cellular ROS production in androgen-dependent prostate cancer cells.

[12] = 1 μM BE-3-3-3 + 25 μM MDL 72,527
[13] = LNCaP, 24 h pretreatment 25 μM MDL 72,527 then 1 nM R1881 96 h

For `Cc1c(C)c2c(c(C)c1O)CC[C@@](C)(CCC[C@H](C)CCC[C@H](C)CCCC(C)C)O2` [Vitamin E, α-tocopherol], the “DCF/DNA Fluor, units” value ([1]; 1 nM R1881 + 15 μM Vitamin E) was 1.80 units.

For `C=C=CCNCCCCNCC=C=C` [MDL 72,527], the “HEt dye oxidation (fluorescence) in prostate section, oxidative stress in vivo” value [2] was “less HEt fluorescence; also recorded: no dye oxidation was detected”, the “androgen (R1881) induced production of ROS” value ([1]; 25 μM MDL 72,527 pretreatment, increasing R1881 concentration 96 hours) was “effectively blocks androgen induced production of ROS” and the “DCF/DNA Fluor, units” value [1, 12] was 1.87 units. For the same molecule, the “tolerability (overt signs of toxicity, abnormal behavior, body weight loss)” value [3] was “well-tolerated”, the “DCF/DNA Fluor, units” value [4, 12] was 0.26 units and the “time to tumor development” value ([5]; TRAMPxFVB mice, 25 mg/kgBW every two weeks) was “delays time to tumor development”. The “treated mice with no signs of palpable tumor” value ([5]; TRAMPxFVB, 11 weeks after treatment discontinued (29 week old animals), 25 mg/kgBW once bi-weekly) was “over 40%”, the N-acetyl-spermidine level [6, 13] was “significant increase” and the N-acetylspermine level [6, 13] was “significant increase”. For the same molecule, the “R1881-induced increase in putrescine level” value [6, 13] was “almost completely blocked the induced increase”, the “R1881-induced increase in spermidine level” value [6, 13] was “almost completely blocked the induced increase” and the spermine level [6, 13] was “without appreciably changing”. For the same molecule, the “APAO activity in cells” value ([6]; LNCaP, MDL 72,527 at 25 μM) was “efficiently and effectively blocked APAO activity”, the N-Ac-spermine level ([6]; LNCaP, treated with the compound (25 μM, 120 hours), without R1881) was “insignificantly small increase” and the “effect on SSAT gene expression and/or enzymatic activity” value ([6]; androgen-treated LNCaP cells, 25 μM MDL 72,527) was “no material effect”. For the same molecule, the “survival benefit vs vehicle-treated mice” value ([7]; 25 mg/kgBW i.p. bi-weekly) was “Over 60%”, the “overall survival (OS) vs vehicle” value ([7]; 25 mg/kgBW i.p. bi-weekly x3, from 22 weeks) was “significant improvement; also recorded: improvement in overall survival; also recorded: improved overall survival” and the “survival benefit vs vehicle-treated mice” value ([8]; 25 mg/kgBW i.p. bi-weekly) was “Over 60%”. For the same molecule, the “treated mice surviving at least 8 weeks after the end of the therapy” value ([8]; 25 mg/kgBW i.p. bi-weekly x6) was “Over 60%”, the “overall survival (OS) vs vehicle” value ([8]; 25 mg/kgBW i.p. bi-weekly x6, from 8 weeks of age) was “significant increase in OS; also recorded: improvement in overall survival; also recorded: increased overall survival” and the “Androgen Receptor level (Western blot)” value [9] was “not due to down-regulation of the Androgen Receptor”.

For `CCNCCCNCCCNCCCNCC` [BE-3-3-3, bisethylnorspermine], the “DCF/DNA Fluor, units” value ([1]; 1 μM BE-3-3-3) was 3.19 units, the “DCF/DNA Fluor, units” value ([4]; 1 μM BE-3-3-3) was 0.67 units and the “cellular ROS levels (DCF/DNA fluorescence, percent of control)” value ([4]; DU-145, increasing BE-3-3-3 concentration, 72 hours, non-cytotoxic dose <1 μM) was “increases oxidative stress; also recorded: increases cellular ROS levels”.

In the case of `C[C@]1(O)CC[C@H]2[C@@H]3CCC4=CC(=O)CCC4=C3C=C[C@@]21C` [R1881, reference compound], the oxidative stress ([1]; 0.05 nM R1881) is reported as “no increase in oxidative stress”, the “DCF/DNA Fluor, units” value ([1]; 1 nM R1881) is reported as 3.34 units and the “SSAT over-expression over the control (DNA microarray)” value [10] is reported as “more than 10 fold”. The “increase in SSAT gene expression vs untreated control cells (qRT-PCR)” value [11] was 50 fold, the N-acetyl spermidine level ([6]; LNCaP, 1 nM R1881, 96 hours) was “increases” and the N-acetylspermine level ([6]; LNCaP, 1 nM R1881, 96 hours) was “increases”. For the same molecule, the putrescine level ([6]; LNCaP, 1 nM R1881, 96 hours) was “significantly increases”, the spermidine level ([6]; LNCaP, 1 nM R1881, 96 hours) was “significantly increases” and the spermine level ([6]; LNCaP, 1 nM R1881, 96 hours) was “decreases”.
